Tests used:
[1] = system: IL-10, TGFb, TNFa, ARG2 and NOS2; assay: Expression of suppressive factors in PBMC (Q-PCR); assay type: cell-based; details: healthy PBMC, 48 hours, 20 μM
Method: Healthy PBMC were cultured for 48 hours with 20 μM the gene expression of suppressive factors measured by the DDCt method. The experimental control is PBMC treated with DMSO and the internal control was GAPDH. Error bars indicate the SEM of three separate donors/experiments.

[2] = system: IL-10 and TGFb; assay: Expression of IL-10 and TGFb on LPS-treated PBMC (Q-PCR); assay type: cell-based; details: 48 hours, 20 μM
Method: The relative expression of IL-10 and TGFb by Q-PCR are shown in FIGS. 19A and 19B, respectively. Healthy PBMC were cultured for 48 hours with 20 μM ICT and the gene expression measured by the DDCt method. The experimental control is PBMC treated with DMSO for 48 hours and the internal control was GAPDH. Error bars indicate the SEM of three separate donors/experiments.

Question: COc1ccc(-c2oc3c(CCC(C)(C)O)c(O)cc(O)c3c(=O)c2O)cc1 [ICT, 3,5,7-trihydroxy-4′-methoxy-8-(3-hydroxy-3-methylbutyl)-flavone] was tested. Which “expression of suppressive factors in PBMC” value [1] did it give?
Answer: down-regulate the expression of suppressive factors in PBMC

Question: What about the “expression of IL-10 and TGFb on LPS-treated PBMC” value [2] of the same compound?
Answer: down-regulate the expression of the suppressive cytokine IL-10 and TGFb on LPS-treated PBMC

— patent publication US20200354331A1, “ICARIIN DERIVATIVES” (H. LEE MOFFITT CANCER CENTER AND RESEARCH INSTITUTE, INC., priority 2014, published 2020)
